Reference: patent publication US11332459B2 (TEIJIN PHARMA LIMITED, priority 2017, dated 2022)
pIC50: −log10 of the molar value. Counter-ions that a name gives are not always drawn.

Molecular target: T1, human TRPC6 (Homo sapiens, UniProt Q9Y210)
T1 construct: expressed in transfected cells
T1 sequence (Q9Y210 1-931): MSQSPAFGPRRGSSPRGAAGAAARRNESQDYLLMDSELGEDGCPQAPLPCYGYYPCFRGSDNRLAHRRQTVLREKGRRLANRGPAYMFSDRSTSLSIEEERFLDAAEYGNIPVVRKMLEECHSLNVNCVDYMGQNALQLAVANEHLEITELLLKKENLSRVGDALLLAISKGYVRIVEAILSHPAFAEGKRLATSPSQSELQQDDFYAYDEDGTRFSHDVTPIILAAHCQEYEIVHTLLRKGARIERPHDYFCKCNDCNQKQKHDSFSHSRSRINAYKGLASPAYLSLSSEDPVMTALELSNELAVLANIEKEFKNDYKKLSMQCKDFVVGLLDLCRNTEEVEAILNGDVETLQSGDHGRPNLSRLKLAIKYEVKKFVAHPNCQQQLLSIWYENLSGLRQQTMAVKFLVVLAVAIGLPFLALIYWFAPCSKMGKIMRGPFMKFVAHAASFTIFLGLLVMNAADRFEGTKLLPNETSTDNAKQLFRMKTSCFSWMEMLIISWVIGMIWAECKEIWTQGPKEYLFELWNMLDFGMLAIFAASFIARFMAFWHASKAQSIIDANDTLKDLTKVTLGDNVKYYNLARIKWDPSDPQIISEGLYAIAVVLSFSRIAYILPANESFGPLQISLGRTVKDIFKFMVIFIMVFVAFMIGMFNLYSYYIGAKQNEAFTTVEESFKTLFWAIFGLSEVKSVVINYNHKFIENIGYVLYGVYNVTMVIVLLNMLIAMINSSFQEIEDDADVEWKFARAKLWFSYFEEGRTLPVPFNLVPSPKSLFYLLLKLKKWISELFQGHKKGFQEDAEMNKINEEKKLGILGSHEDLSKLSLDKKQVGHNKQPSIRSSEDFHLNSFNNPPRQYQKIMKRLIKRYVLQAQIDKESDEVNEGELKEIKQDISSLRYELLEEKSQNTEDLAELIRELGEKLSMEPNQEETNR
Experiment: TRPC6 calcium flux assay (FLIPR, OAG-stimulated calcium influx)
Format: cell-based
Conditions: HEK293 cells stably transfected with human TRPC6, read-out: hTRPC6 Potency
Method: Biological Example 1 TRPC6 Calcium Flux Assay
Potency of TRPC6 (Transient receptor potential channel family C6) inhibitors were measured by their inhibition of Calcium influx trigged by […] (1-Oleoyl-2-acetyl-sn-glycerol, Millipore Sigma, O6754) stimulation on HEK293 cells stablely transfected with human TRPC6 using a FLIPR tetra system. Cells were grown in a humidified environment at 37° C. under 5% CO2 using the growth medium with the following selective reagents (Dulbecco's Modified Eagle's Medium (DMEM) high glucose, 10% Fetal Bovine Serum, 1×PSGlu (penicillin-streptomycin glutamine), 1×NEAA (Non-essential amino acid), 1× Na Pyruvate and 200 ug/ml Hygromycin). For general passage, cells were grown to 70-90% confluency; the media was removed, and the cells were gently washed 2 times with calcium and magnesium free PBS (phosphate-buffered saline). Trypsin (3 mL) was applied for 5 minutes at 37° C. The cells were dislodged by rapping flask against base of a hand and 7 mL of growth medium was added to deactivate trypsin and re-suspend cells. The usual splitting schedule was 1:5 every 2-3 days.
Cells were plated the day before the assay, plating cell density is 1.0-1.5×10^4/25 μl/well in poly-D-lysine (PDL) coated 384-well plates using either multichannel pipettes or multidrop. These cells were first incubated with fluorescence dye at room temperature for 90-120 minutes after they were grown on PDL-coated 384-well black plates overnight (Dye loading buffer 10 ml example: 9 mL assay buffer, 1 mL, 10×PBX signal enhancer, 10 μL Calcium indicator). The cells were incubated with a dose of compounds for 25 minutes before being stimulated with TRPC6 agonist OAG. The OAG solution was prepared by adding OAG into assay buffer (Ca ringer solution base: 10 mM HEPES (4-(2-hydroxyethyl)-1-piperazine-ethanesulfonic acid), 4 mM MgCl2, 120 mM NaCl, 5 mM KCl, pH=7.2 @25° C.)+0.1% BSA+2 mM CaCl2) to the concentration of 0.2 mM/2% DMSO, which achieves a final on cell concentration of 50 uM/0.5% DMSO. 12.5 uL OAG mixture was added and the activation of the TRPC6 channel was measured by the change of intracellular Calcium levels on FLIPR terra system.
Data was acquired by measuring the fluorescent peak signal subtracted from the background during the 180 second imaging frame. Each data point is further normalized to 100% of OAG triggered signal vs. buffer. Table 16 provides the IC50 for each compound, which data is obtained by plotting peak signal over the compound dose.

SMILES | pIC50
N[C@@H]1CN(c2nc3cc(F)c(F)cc3n2CC(=O)N2CC3(C2)CC(F)(F)C3)CC[C@H]1F [Example 430, 2-(2-((3R,4R)-3-amino-4-fluoropiperidin-1-yl)-5,6-difluoro-1H-benzo[d]imidazol-1-yl)-1-(6,6-difluoro-2-azaspiro[3.3]heptan-2-yl)ethanone] | 6.06
N[C@@H]1CN(c2nc3ccccc3n2Cc2ncc(Br)cn2)CC[C@H]1F [Example 192, (3R,4R)-1-(1-((5-bromopyrimidin-2-yl)methyl)-1H-benzo[d]imidazol-2-yl)-4-fluoropiperidin-3-amine] | 8.76
N#Cc1ccc2nc(N3CCC(F)(F)[C@H](N)C3)n(Cc3ncc(Cl)cn3)c2c1 [Example 41, (R)-2-(3-amino-4,4-difluoropiperidin-1-yl)-1-((5-chloropyrimidin-2-yl)methyl)-1H-benzo[d]imidazole-6-carbonitrile] | 7.74
N#Cc1cc(Cl)ccc1Cn1c(N2CC[C@@H](F)[C@H](N)C2)nc2cc(F)c(F)cc21 [Example 340, 2-((2-((3R,4R)-3-amino-4-fluoro-1-piperidinyl)-5,6-difluoro-1H-benzimidazol-1-yl)methyl)-5-chlorobenzonitrile] | 9.15
CS(=O)(=O)CC1CCN(C(=O)Cn2c(N3CC[C@@H](F)[C@H](N)C3)nc3cc(F)c(F)cc32)C1 (stereo partly drawn) [Example 645, 2-(2-((3R,4R)-3-amino-4-fluoropiperidin-1-yl)-5,6-difluoro-1H-benzo[d]imidazol-1-yl)-1-(3-((methylsulfonyl)methyl)pyrrolidin-1-yl)ethanone] | 5.64
COCC1(C#N)CCN(C(=O)Cn2c(N3CC[C@@H](F)[C@H](N)C3)nc3cc(F)c(F)cc32)CC1 [Example 658, 1-(2-(2-((3R,4R)-3-amino-4-fluoropiperidin-1-yl)-5,6-difluoro-1H-benzo[d]imidazol-1-yl)acetyl)-4-(methoxymethyl)piperidine-4-carbonitrile] | < 5.43
N#Cc1ccc(Cn2c(N3CCC[C@H](N)C3)nc3cc(Cl)ccc32)cc1 [Example 422, (S)-4-((2-(3-aminopiperidin-1-yl)-5-chloro-1H-benzo[d]imidazol-1-yl)methyl)benzonitrile] | 8.63
N[C@@H]1CCCN(c2nc3ccccc3n2Cc2cccc(Cl)c2)C1 [Example 378, (R)-1-(1-(3-chlorobenzyl)-1H-benzo[d]imidazol-2-yl)piperidin-3-amine] | 5.51
N[C@@H]1CCCN(c2nc3ccccc3n2Cc2cc(-c3cccc(Cl)c3)no2)C1 [Example 392, (R)-1-(1-((3-(3-chlorophenyl)isoxazol-5-yl)methyl)-1H-benzo[d]imidazol-2-yl)piperidin-3-amine] | 5.65
N#CCCN(C(=O)Cn1c(N2CC[C@@H](F)[C@H](N)C2)nc2cc(F)c(F)cc21)C1CCOCC1 [Example 656] | < 5.43
C[C@@H](c1ccc(F)cc1F)n1c(N2CC[C@@H](F)[C@H](N)C2)nc2cc(F)c(F)cc21 [Example 331, (3R,4R)-1-(1-((1S)-1-(2,4-difluorophenyl)ethyl)-5,6-difluoro-1H-benzimidazol-2-yl)-4-fluoro-3-piperidinamine] | 6.69
COc1cc(F)cc2nc(N3CC[C@@H](F)[C@H](N)C3)n(Cc3ccc(C#N)cn3)c12 [Example 476] | 6.12
Cc1cc2nc(N3CC[C@@H](F)[C@H](N)C3)n(Cc3ccc(C#N)cn3)c2cc1Cl [Example 112, 6-((2-((3R,4R)-3-amino-4-fluoro-1-piperidinyl)-6-chloro-5-methyl-1H-benzimidazol-1-yl)methyl)-3-pyridinecarbonitrile] | 9.55
N[C@@H]1CN(c2nc3cc(F)c(F)cc3n2CC(=O)N2CCN3C(=O)NCC3C2)CC[C@H]1F (stereo partly drawn) [Example 642, 7-(2-(2-((3R,4R)-3-amino-4-fluoropiperidin-1-yl)-5,6-difluoro-1H-benzo[d]imidazol-1-yl)acetyl)hexahydroimidazo [1,5-a]pyrazin-3(2H)-one] | 5.78
N#Cc1ccc(Cn2c(N3CC[C@H](F)[C@H](N)C3)nc3c(C(F)(F)F)cccc32)nc1 [Example 91, 6-((2-((3R,4S)-3-amino-4-fluoropiperidin-1-yl)-4-(trifluoromethyl)-1H-benzo[d]imidazol-1-yl)methyl)nicotinonitrile] | 7.48
C[C@]1(N)CCCN(c2nc3ccccc3n2Cc2ccc(C#N)cn2)C1 [Example 141, 6-((2-((3S)-3-amino-3-methyl-1-piperidinyl)-1H-benzimidazol-1-yl)methyl)-3-pyridinecarbonitrile] | 7.87
N[C@@H]1CN(c2nc3cc(F)ccc3n2Cc2ncc(Cl)cn2)CC[C@H]1F [Example 290, (3R,4R)-1-(1-((5-chloropyrimidin-2-yl)methyl)-5-fluoro-1H-benzo[d]imidazol-2-yl)-4-fluoropiperidin-3-amine] | 5.71
N#Cc1ccc(Cn2c(N3CC[C@@H](F)[C@H](N)C3)nc3cc(Cl)ccc32)nc1 [Example 7, 6-((2-((3R,4R)-3-amino-4-fluoropiperidin-1-yl)-5-chloro-1H-benzo[d]imidazol-1-yl)methyl)nicotinonitrile] | 8.93
N#Cc1ccc(Cn2c(N3CCC[C@@H](N)C3)nc3ccccc32)c(F)c1 [Example 383, (R)-4-((2-(3-aminopiperidin-1-yl)-1H-benzo[d]imidazol-1-yl)methyl)-3-fluorobenzonitrile] | 6.50
CN(CC(F)(F)F)C(=O)Cn1c(N2CC[C@@H](F)[C@H](N)C2)nc2cc(F)cc(F)c21 [Example 591, 2-(2-((3R,4R)-3-amino-4-fluoropiperidin-1-yl)-5,7-difluoro-1H-benzo[d]imidazol-1-yl)-N-methyl-N-(2,2,2-trifluoroethyl)acetamide] | 5.80
N[C@@H]1CCCN(c2nc3ccccc3n2Cc2ccc(OC(F)(F)F)cc2)C1 [Example 376, (R)-1-(1-(4-(trifluoromethoxy)benzyl)-1H-benzo[d]imidazol-2-yl)piperidin-3-amine] | 5.52
N[C@@H]1CN(c2nc3ccc(Br)cc3n2CC(=O)N2CCC2)CC[C@H]1F [Example 455, 2-(2-((3R,4R)-3-amino-4-fluoropiperidin-1-yl)-6-bromo-1H-benzo[d]imidazol-1-yl)-1-(azetidin-1-yl)ethan-1-one] | 8.18
COc1ccc2nc(N3CC[C@@H](F)[C@H](N)C3)n(Cc3ccc(C#N)cn3)c2c1 [Example 146, 6-((2-((3R,4R)-3-amino-4-fluoropiperidin-1-yl)-6-methoxy-1H-benzo[d]imidazol-1-yl)methyl)nicotinonitrile hydrochloride] | 9.20
N#Cc1ccc(Cn2c(N3CCC[C@@]4(CCCN4)C3)nc3ccccc32)nc1 [Example 136, 6-((2-((5S)-1,7-diazaspiro[4.5]decan-7-yl)-1H-benzimidazol-1-yl)methyl)-3-pyridinecarbonitrile] | 7.86
CNC(=O)Cn1c(N2CC[C@@H](F)[C@H](N)C2)nc2cc(F)c(F)cc21 [Example 275, 2-(2-((3R,4R)-3-amino-4-fluoro-1-piperidinyl)-5,6-difluoro-1H-benzimidazol-1-yl)-N-methylacetamide] | 9.49
